Calls of active or inactive are those of the source.
Tests used:
Estrogen receptor = Estrogen receptor (Homo sapiens, UniProt P03372);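 further: potency for inhibiting coactivator peptide recruitment to the receptor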
Estrogen receptor beta [1] = target: T1, Estrogen receptor beta (Homo sapiens, UniProt Q92731);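 further: recombinant ER-beta bound to coactivator SRC1 peptide in presence of estradiol agonist; inhibitors block coactivator peptide binding and lower the FRET signal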
Mucolipin-3 = Mucolipin-3 (Homo sapiens, UniProt Q8TDD5); assay: Dose response cell-based high-throughput screening assay for agonists of the transient receptor potential channel ML3 (TRPML3). [Related pubchem assays: 1526, 1424, 1448 ]; type: functional
Ion channel NompC = Ion channel NompC (Danio rerio, UniProt Q7T1G6); assay: Fluorescence counterscreen assay for TRPML3 agonists: dose response cell-based high-throughput screening assay to identify agonists of the transient receptor potential channel N1 (TRPN1). [Related pubchem assays: 1526, 1424, 1448 ]; type: functional
[2] = target: T2, Corticotropin-releasing factor receptor 2/Corticotropin-releasing factor-binding protein (Homo sapiens, UniProt P24387+Q13324); assay: activators of CRF receptor 2 with binding protein – uHTS hits, confirmation (AID 602473); type: functional; conditions: read-out: EC50_Mean
T2 sequence (Q13324 whole entry): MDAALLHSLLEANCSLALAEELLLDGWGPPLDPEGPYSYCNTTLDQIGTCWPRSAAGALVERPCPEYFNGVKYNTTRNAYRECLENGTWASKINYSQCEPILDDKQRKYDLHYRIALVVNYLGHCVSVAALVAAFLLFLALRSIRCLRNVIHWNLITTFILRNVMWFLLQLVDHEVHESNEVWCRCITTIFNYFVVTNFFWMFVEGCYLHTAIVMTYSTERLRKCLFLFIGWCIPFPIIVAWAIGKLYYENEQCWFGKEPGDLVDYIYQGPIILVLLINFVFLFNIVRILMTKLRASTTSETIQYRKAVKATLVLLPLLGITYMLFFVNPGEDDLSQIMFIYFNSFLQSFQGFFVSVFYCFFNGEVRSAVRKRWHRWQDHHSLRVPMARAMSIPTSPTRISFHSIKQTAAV
T2 sequence (P24387 whole entry): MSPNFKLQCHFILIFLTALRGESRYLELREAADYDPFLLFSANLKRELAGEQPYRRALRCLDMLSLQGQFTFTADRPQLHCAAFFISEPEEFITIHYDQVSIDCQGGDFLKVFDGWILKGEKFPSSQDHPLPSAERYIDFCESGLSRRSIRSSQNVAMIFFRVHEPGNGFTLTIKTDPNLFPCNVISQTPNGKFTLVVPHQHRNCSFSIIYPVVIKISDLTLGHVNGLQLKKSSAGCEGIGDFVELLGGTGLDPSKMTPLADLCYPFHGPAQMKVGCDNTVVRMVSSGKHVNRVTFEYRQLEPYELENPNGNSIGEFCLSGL

HT-1080 = assay: cytotoxicity in HT1080 fibrosarcoma cells, cell-based, fluorescence readout (AID 620); type: functional; conditions: Homo sapiens
[3] = target: Protein-tyrosine kinase 2-beta (Homo sapiens, UniProt Q14289);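 further: potency of inhibitors of PYK2 kinase phosphorylation of poly-GT substrate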
Beta-lactamase [4] = target: Beta-lactamase (Salmonella choleraesuis (strain SC-B67), UniProt Q5J463)
Beta-lactamase [5] = target: Beta-lactamase (Pseudomonas aeruginosa, UniProt Q79MP6);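 further: biochemical dose-response test of metallo-beta-lactamase enzyme inhibition, read out by epi-absorbance; purified recombinant IMP-1 metallo-beta-lactamase with nitrocefin as substrate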
[6] = target: Luciferin 4-monooxygenase (Photinus pyralis, UniProt P08659); assay: Counter Screen for Luciferase-based Assay Positives. [Related pubchem assays: 620, 618, 411 ]
[7] = target: Voltage-dependent T-type calcium channel subunit alpha-1H (Homo sapiens, UniProt O95180); type: functional;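 further: channel activity triggered by adding a high calcium stimulation buffer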
[8] = inhibitors of SNCA 5'UTR-driven reporter translation, confirmation, H4 neuroglioma cells, luminescence (AID 1988); type: functional, cell-based
[9] = inhibitors of firefly luciferase expression or activity, dose response, H4 neuroglioma cells, luminescence (AID 1990); type: functional, cell-based
[10] = Luminescence Cell-Based Dose Response HTS to Identify Inhibitors of 5'UTR Stem-Loop Driven Prion Protein mRNA Translation in H4 Neuroglioblastoma Cells. [Related pubchem assays: 1827 (Project Summary), 1813 (Primary HTS)]; type: functional
[11] = cytotoxicity in HPDE-C7 cells, cell-based, fluorescence, HTS (AID 430); type: functional; conditions: Homo sapiens
[12] = growth suppression of beta-catenin-knockout colon cells, dose response, cell-based, HCT116, human colon tumor (AID 1045); type: functional;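 further: HCT116 colon tumor cells with beta catenin knocked out; cells exposed to compound for 60 hours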
[13] = growth suppression of PTEN-null colon cells, dose response, cell-based, HCT116 PTEN knockout (AID 1047); type: functional;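 further: HCT116 colon tumor cells with PTEN knocked out; cells exposed to compound for 60 hours before readout; potency for loss of cell viability measured by luminescence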
[14] = target: T3, Apoptotic protease-activating factor 1 (Homo sapiens, UniProt O14727); type: functional
T3 sequence (O14727 whole entry): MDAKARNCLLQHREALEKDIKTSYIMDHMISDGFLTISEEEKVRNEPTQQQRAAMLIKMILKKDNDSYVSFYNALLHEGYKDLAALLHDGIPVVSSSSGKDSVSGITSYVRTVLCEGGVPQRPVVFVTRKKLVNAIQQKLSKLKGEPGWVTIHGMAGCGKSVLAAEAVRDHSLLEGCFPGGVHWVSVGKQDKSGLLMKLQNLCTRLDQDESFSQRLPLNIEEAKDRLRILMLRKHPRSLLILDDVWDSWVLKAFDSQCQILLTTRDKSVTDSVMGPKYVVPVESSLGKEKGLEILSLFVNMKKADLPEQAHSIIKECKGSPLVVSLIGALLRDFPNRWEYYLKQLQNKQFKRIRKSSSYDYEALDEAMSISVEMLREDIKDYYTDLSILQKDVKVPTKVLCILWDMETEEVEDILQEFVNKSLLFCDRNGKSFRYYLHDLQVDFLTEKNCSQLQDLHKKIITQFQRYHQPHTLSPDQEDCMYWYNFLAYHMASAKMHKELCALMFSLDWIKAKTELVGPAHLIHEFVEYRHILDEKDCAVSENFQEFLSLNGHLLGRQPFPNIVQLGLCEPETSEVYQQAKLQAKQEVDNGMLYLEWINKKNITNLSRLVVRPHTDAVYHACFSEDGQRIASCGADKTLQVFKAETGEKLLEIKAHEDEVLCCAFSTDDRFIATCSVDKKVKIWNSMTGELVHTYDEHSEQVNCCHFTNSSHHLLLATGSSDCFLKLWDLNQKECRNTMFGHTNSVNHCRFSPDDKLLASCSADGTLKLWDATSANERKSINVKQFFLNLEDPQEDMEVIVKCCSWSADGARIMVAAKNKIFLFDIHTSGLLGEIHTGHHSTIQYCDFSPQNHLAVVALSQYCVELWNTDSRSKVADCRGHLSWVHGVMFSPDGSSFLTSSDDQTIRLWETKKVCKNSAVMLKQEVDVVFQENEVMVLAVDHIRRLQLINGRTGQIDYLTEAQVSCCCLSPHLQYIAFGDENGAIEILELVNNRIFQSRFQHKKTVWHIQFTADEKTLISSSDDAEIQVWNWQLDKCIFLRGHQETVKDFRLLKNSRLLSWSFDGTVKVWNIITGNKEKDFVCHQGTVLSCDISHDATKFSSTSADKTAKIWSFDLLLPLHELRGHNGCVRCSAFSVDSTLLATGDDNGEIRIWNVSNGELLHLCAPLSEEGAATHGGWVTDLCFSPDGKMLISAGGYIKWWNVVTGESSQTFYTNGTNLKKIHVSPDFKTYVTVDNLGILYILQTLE

[15] = cytotoxicity in KRAS-transformed pancreatic duct cells, primary screen, cell-based, fluorescence, HTS (AID 431); type: functional; conditions: Homo sapiens;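 further: cell line used: HPDE-C7K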
Protein RecA = target: T4, Protein RecA (Mycobacterium tuberculosis, UniProt P9WHJ3); assay: Fluorescence Cell-Free Homogeneous Dose Retest to Identify Inhibitors of RecA-Intein Splicing Activity. [Related pubchem assays (depositor defined):AID2097, AID2223, AID489010, AID492950]; type: functional
T4 sequence (P9WHJ3 whole entry): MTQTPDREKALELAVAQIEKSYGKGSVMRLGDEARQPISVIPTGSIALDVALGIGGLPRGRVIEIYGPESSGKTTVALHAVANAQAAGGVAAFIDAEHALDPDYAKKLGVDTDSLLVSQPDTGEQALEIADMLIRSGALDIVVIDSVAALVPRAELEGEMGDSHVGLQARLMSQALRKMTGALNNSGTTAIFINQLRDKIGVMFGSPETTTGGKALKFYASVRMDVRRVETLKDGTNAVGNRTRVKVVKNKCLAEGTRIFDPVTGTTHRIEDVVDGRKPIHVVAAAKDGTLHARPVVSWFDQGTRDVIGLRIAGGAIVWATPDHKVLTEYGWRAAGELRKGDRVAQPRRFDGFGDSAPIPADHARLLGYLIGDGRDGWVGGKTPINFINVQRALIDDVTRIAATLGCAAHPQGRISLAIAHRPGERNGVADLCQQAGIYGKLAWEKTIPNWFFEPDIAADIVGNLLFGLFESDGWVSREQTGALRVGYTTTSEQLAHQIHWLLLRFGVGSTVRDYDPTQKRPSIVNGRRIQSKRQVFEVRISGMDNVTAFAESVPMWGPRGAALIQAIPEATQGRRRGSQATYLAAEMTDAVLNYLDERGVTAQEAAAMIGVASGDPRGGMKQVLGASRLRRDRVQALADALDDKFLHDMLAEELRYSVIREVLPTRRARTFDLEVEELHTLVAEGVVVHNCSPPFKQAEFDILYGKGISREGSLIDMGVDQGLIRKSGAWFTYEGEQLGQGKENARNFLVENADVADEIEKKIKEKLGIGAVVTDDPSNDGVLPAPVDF

[16] = target: T5, Replicative DNA helicase DnaB (Mycobacterium tuberculosis, UniProt P9WMR3); assay: DnaB intein splicing inhibitors, dose response, biochemical, cell-free fluorescence (AID 449749); type: functional
T5 sequence (P9WMR3 whole entry): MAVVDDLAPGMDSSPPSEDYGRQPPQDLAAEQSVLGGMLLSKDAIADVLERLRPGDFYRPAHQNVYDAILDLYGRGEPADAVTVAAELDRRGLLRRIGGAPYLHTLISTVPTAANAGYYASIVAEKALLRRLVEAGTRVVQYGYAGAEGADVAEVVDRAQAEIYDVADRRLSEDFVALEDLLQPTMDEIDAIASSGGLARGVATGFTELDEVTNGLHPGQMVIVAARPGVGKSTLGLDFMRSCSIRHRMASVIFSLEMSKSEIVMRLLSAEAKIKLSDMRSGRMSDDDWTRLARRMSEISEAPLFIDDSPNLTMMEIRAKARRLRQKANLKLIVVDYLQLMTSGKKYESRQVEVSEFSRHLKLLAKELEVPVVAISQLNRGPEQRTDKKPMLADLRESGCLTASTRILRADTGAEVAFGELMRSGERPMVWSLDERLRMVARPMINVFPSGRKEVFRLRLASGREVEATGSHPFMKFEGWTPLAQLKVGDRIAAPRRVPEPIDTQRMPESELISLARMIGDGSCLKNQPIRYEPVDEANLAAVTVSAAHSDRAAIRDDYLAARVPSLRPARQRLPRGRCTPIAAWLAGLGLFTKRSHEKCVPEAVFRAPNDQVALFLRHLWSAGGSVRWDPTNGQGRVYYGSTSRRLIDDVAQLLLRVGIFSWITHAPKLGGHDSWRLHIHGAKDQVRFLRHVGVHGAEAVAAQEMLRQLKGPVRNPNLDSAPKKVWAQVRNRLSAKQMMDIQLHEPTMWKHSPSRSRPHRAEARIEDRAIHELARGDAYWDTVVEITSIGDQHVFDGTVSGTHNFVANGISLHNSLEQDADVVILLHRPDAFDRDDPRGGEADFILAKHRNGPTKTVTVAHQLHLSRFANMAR

Estrogen receptor beta [17] = target: T1, Estrogen receptor beta; assay: ERβ–SRC-3 coactivator interaction inhibitors, confirmation, orthogonal assay, biochemical, ELISA, streptavidin-HRP readout (AID 1060)

T1 sequence (Q92731 whole entry): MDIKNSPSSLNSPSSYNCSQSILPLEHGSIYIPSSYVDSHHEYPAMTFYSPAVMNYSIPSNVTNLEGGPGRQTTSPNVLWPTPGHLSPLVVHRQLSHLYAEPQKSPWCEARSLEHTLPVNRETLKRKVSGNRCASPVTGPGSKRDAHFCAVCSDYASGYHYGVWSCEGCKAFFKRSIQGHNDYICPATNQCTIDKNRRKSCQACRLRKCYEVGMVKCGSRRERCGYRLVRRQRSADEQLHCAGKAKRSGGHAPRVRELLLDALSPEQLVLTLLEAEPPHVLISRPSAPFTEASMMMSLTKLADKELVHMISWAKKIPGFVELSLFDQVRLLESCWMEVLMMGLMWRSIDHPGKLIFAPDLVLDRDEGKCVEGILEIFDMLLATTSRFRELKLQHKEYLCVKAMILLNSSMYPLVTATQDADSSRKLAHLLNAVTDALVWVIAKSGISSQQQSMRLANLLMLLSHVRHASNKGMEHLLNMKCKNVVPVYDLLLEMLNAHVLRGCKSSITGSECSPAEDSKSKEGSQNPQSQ
Mucolipin-3, sequence (Q8TDD5 whole entry): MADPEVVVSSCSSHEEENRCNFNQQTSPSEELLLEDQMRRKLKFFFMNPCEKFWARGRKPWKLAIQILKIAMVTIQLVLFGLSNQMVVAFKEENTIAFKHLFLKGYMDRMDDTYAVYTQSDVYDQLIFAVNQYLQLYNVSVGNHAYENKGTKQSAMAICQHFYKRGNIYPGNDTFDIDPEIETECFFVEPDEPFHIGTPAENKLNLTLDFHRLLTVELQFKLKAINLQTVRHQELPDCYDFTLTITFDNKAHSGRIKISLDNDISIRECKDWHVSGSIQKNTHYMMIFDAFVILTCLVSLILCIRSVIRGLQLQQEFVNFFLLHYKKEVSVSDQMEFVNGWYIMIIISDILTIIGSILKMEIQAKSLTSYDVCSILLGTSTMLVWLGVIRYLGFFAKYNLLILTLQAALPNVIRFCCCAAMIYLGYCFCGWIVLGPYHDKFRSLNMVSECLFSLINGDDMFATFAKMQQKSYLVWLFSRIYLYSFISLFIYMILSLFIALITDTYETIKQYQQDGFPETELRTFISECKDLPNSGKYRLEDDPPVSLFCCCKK
Luciferin 4-monooxygenase, sequence (P08659 whole entry): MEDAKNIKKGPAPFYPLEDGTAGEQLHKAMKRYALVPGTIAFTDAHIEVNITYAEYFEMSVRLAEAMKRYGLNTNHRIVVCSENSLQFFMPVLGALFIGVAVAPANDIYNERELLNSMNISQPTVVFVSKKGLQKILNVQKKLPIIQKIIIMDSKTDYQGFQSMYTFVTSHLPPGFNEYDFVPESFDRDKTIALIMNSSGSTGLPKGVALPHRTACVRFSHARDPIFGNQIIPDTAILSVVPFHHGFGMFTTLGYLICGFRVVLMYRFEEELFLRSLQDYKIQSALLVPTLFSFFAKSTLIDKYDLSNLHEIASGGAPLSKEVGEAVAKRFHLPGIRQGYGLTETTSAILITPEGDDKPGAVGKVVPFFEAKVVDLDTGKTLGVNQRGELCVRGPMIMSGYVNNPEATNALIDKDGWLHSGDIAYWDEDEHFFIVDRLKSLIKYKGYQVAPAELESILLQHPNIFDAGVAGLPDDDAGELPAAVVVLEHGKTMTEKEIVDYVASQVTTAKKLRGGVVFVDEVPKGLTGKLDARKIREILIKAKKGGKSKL
Ion channel NompC, sequence (Q7T1G6 whole entry): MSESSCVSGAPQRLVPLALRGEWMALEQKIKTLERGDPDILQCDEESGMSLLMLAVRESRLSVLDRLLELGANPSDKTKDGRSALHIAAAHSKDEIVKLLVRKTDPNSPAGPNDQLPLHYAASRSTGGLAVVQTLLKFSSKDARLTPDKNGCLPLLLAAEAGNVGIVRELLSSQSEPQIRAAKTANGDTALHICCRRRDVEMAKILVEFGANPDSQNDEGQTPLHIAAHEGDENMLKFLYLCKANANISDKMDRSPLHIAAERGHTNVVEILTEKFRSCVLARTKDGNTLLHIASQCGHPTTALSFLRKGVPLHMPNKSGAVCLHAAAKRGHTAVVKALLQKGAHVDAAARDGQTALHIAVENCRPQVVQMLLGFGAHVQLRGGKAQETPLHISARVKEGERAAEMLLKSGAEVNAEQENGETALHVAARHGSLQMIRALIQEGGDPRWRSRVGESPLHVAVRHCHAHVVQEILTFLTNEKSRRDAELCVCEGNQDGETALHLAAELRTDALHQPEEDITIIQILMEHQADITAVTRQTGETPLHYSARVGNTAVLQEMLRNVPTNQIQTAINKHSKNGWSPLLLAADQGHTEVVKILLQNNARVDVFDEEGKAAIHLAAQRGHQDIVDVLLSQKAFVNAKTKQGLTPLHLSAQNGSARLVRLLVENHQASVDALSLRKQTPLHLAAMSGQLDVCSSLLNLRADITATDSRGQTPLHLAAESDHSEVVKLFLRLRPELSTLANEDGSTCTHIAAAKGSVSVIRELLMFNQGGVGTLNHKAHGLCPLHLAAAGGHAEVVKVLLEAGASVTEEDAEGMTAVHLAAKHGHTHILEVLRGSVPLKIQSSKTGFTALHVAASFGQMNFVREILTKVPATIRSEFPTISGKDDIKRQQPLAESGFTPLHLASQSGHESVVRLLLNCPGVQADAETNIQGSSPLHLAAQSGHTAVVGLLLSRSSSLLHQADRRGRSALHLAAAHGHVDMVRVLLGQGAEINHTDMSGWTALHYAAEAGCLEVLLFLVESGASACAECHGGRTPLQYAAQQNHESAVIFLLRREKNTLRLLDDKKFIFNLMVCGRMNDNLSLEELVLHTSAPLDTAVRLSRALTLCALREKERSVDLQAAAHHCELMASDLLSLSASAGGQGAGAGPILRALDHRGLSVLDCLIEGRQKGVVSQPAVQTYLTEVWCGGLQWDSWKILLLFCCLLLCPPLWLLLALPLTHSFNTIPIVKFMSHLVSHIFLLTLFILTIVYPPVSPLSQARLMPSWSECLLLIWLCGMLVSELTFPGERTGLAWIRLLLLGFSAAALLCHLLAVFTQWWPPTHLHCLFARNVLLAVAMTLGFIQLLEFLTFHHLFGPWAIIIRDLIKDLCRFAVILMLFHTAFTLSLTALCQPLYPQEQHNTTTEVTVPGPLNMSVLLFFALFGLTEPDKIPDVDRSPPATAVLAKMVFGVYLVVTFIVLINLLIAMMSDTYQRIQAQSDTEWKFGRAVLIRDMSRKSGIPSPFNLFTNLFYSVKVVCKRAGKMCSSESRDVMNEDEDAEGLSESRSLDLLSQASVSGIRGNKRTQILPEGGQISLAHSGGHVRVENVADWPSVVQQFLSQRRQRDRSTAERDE
Protein-tyrosine kinase 2-beta, sequence (Q14289 whole entry): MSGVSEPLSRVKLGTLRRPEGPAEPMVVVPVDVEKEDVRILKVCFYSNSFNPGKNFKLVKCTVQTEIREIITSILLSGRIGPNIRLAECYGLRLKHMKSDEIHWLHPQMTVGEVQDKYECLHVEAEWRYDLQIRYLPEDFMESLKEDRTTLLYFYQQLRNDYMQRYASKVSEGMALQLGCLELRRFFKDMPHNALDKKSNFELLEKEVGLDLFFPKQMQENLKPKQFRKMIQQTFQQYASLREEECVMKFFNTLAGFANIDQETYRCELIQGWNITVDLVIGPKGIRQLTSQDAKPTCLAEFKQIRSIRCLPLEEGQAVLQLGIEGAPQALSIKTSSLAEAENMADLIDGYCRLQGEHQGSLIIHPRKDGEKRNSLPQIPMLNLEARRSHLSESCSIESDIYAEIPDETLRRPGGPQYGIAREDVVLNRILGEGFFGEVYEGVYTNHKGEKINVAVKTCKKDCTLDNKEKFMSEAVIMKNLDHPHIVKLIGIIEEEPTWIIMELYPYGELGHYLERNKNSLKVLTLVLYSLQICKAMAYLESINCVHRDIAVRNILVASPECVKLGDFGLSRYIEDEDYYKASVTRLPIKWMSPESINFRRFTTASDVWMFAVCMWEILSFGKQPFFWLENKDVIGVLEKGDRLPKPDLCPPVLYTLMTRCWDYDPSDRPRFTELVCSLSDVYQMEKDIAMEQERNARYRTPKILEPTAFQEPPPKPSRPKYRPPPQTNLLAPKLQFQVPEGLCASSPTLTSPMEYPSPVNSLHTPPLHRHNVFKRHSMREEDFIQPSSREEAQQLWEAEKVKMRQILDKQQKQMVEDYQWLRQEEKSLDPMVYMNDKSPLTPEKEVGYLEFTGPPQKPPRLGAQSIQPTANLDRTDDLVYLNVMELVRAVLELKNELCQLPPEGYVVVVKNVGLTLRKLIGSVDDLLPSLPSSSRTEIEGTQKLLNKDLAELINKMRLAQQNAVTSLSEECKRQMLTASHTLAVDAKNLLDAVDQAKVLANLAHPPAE
Estrogen receptor, sequence (P03372 whole entry): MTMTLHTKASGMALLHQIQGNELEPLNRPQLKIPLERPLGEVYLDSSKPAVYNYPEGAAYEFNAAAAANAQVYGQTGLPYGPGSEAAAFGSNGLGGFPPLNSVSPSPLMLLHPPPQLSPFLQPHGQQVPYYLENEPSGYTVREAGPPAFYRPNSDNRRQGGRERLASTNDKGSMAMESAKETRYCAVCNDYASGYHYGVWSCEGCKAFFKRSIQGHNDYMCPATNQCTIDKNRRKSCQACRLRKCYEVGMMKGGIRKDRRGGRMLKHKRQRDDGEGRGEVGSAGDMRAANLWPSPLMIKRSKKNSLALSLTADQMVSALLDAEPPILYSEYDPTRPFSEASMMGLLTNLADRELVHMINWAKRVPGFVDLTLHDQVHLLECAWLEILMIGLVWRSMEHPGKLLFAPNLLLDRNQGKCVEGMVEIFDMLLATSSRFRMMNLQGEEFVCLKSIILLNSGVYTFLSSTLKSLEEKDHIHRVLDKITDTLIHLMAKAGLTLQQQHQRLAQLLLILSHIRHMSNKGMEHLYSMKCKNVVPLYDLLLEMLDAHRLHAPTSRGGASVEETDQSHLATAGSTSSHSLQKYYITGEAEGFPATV

## C/N=C1\SC(CC(=O)Nc2ccc(C(C)=O)cc2)C(=O)N1C (centres undefined)
Estrogen receptor
  IC50: > 50 µM (not active)
Estrogen receptor beta [1]
  IC50: > 50 µM (not active)

## O=C(c1ccc([N+](=O)[O-])cc1)N(Cc1ccc(Cl)cc1Cl)N1C(=O)CCCC1=O
Mucolipin-3
  EC50: > 29.9 µM (not active)
Ion channel NompC
  EC50: > 29.9 µM (not active)
[2]
  EC50: > 53 µM (inactive)

## CCN(CC)c1ccc2cc(-c3nc4ccccc4[nH]3)c(=O)oc2c1
HT-1080
  EC50: > 50 µM (not active)
[3]
  IC50: 2.32 µM (active)
Beta-lactamase [4]
  IC50: 709 nM (active)
Beta-lactamase [5]
  IC50: 3.24 µM (active)
[6]
  EC50: < 200 nM (active)
[7]
  EC50: 434 nM (active)

## CC(C)N(C(=O)c1ccc2nc(-c3ccccc3)c(-c3ccccc3)nc2c1)C(C)C
Mucolipin-3
  EC50: 1.52 µM (active)
Ion channel NompC
  EC50: > 29.9 µM (not active)

## O=c1c(Cl)c(N2CCCCC2)cnn1-c1nc2ccccc2[nH]1
[8]
  EC50: 2.68 µM (active)
HT-1080
  EC50: > 50 µM (not active)
[9]
  EC50: 2.55 µM (active)
[6]
  EC50: 4250 nM (active)
[10]
  EC50: 34.4 µM (active)

## Nc1c(C(=O)NCc2ccc3c(c2)OCO3)c2nc3ccccc3nc2n1CCCN1CCOCC1
[11]
  EC50: 9.92 µM (active)
[12]
  EC50: 20.2 µM (active)
[13]
  EC50: 20.6 µM (active)
[14]
  IC50: 76.8 µM (active)
[15]
  EC50: 13.2 µM (active)

## COc1ccc(-c2nnc(SC(=O)N3c4ccccc4Sc4ccccc43)o2)cc1
[11]
  EC50: 12.5 µM (active)
Protein RecA
  EC50: 451 nM (active)
[15]
  EC50: 8.96 µM (active)
[16]
  AC50: 1.79 µM (active)

## CC12CCC(=O)N1C(C(=O)OCC(=O)Nc1sccc1C#N)CS2 (centres undefined)
Estrogen receptor beta [1]
  IC50: 14.4 µM (active)
Estrogen receptor beta [17]
  IC50: 118 nM (not active)
